Type in all cases: biochemical
For experiment [1], the target named is TYK2 (Homo sapiens, UniProt P29597). The experiment is described as follows: JAK kinase activity, homogeneous time-resolved fluorescence (TYK2 reaction system). The conditions noted are these: ATP 2 μM, TYK2 protein 0.2 ng/μL; read-out: TYK 2 activity. An outline of the steps:
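Activity read as the 665 nm/615 nm ratio after adding EDTA-containing detection mix with anti-phospho-substrate antibody and XL-615. Beforehand, 0.2 ng/μL TYK2, 2 μM ATP, substrate and compound reacted 1 h in pH 7.0 Hepes buffer with MgCl2 and DTT. IC50 fitted with Hill-slope equation.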

The target of experiment [2] is T1, JAK3 (Homo sapiens, UniProt P52333).
T1 sequence (P52333 1-1124): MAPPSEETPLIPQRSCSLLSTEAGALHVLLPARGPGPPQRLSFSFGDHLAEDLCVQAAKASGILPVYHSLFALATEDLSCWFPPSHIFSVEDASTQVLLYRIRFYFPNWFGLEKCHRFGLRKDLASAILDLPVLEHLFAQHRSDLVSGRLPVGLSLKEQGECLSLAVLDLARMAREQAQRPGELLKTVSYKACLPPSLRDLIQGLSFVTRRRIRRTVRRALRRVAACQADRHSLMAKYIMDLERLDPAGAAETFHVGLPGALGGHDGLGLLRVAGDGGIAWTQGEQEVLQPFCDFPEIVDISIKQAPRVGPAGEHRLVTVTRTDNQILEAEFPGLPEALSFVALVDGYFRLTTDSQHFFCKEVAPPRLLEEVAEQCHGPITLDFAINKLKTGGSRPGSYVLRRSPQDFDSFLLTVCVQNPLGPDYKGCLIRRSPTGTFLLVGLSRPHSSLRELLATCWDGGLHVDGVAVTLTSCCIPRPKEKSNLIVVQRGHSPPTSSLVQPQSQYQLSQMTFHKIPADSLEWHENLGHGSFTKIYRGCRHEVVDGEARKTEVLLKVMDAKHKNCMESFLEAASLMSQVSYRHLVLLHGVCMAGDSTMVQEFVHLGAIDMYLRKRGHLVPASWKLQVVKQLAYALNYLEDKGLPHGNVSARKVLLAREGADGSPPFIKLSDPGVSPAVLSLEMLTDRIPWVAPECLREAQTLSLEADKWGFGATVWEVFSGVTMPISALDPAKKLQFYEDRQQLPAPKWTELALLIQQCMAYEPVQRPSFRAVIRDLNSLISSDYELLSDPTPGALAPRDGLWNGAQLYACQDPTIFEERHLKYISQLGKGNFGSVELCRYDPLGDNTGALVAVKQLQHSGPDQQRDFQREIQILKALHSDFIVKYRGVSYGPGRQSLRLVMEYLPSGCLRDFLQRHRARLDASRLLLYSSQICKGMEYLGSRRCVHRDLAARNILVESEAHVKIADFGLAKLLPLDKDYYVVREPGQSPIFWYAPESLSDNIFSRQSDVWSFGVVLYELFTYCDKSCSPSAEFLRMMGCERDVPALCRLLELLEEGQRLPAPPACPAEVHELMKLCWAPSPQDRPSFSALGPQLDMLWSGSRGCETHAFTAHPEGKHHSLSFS
Kind of experiment: JAK kinase activity, homogeneous time-resolved fluorescence (JAK3 reaction system). The conditions noted are these: ATP 2 μM, JAK3 protein 0.04 ng/μL; read-out: JAK 3 activity.

Experiment [3] deals with JAK2 (Homo sapiens, UniProt O60674). The experiment is described as follows: JAK kinase activity, homogeneous time-resolved fluorescence (JAK2 reaction system). The conditions noted are these: ATP 2 μM, JAK2 protein 0.01 ng/μL. An outline of the steps: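 IC50 derived by Hill-equation fit of the 665/615 nm time-resolved fluorescence ratio after EDTA-containing detection mix with anti-phosphosubstrate antibody. Preceding 1 h reaction contained 2 μM ATP, 0.01 ng/μL JAK2, substrate, 50 mM Hepes pH 7.0, 5 mM MgCl2, 1 mM DTT.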

For experiment [4], the target named is JAK1 (Homo sapiens, UniProt P23458). The experiment is described as follows: JAK kinase activity, homogeneous time-resolved fluorescence (JAK1 reaction system). The conditions noted are these: ATP 2 μM, JAK1 protein 0.2 ng/μL; read-out: JAK 1 activity. In short, it runs like this:
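Kinase activity read as the 665 nm/615 nm time-resolved fluorescence ratio (320 nm excitation) after EDTA-containing antibody and XL-615 addition. Reaction ran 1 h at pH 7.0 (Hepes, MgCl2, DTT) with 0.2 ng/μL JAK1 and ATP at 2 μM. IC50 derived by Hill-slope fit.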

The structures appear in SMILES notation.

Sequence of JAK2 (O60674 whole entry): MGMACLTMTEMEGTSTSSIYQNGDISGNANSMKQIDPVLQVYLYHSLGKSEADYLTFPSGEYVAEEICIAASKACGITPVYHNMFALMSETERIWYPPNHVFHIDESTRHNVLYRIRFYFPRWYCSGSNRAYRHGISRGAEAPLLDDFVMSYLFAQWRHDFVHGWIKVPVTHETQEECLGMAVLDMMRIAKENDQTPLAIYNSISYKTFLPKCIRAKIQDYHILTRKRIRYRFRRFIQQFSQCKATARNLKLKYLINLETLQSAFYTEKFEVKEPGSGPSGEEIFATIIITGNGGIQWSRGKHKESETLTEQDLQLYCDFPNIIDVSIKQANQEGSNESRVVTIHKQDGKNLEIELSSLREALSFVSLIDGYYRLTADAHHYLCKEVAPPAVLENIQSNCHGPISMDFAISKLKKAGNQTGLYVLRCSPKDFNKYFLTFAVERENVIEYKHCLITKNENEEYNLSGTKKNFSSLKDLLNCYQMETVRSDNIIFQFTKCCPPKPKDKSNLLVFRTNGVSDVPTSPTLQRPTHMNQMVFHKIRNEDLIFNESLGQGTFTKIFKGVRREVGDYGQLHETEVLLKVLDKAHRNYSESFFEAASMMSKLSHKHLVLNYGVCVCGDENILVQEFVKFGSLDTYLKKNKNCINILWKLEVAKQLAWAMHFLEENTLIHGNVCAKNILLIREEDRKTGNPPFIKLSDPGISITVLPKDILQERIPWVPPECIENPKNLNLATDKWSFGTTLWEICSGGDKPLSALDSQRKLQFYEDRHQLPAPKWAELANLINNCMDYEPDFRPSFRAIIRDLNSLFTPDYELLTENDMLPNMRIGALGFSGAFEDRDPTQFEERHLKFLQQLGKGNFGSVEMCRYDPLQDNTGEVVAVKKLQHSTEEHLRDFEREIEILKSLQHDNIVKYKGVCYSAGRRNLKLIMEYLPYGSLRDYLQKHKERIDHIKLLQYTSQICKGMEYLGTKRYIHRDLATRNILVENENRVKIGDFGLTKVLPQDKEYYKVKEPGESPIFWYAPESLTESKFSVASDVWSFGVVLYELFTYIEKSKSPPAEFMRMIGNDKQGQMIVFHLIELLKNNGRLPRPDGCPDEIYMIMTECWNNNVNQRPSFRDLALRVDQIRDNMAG
Sequence of JAK1 (P23458 whole entry): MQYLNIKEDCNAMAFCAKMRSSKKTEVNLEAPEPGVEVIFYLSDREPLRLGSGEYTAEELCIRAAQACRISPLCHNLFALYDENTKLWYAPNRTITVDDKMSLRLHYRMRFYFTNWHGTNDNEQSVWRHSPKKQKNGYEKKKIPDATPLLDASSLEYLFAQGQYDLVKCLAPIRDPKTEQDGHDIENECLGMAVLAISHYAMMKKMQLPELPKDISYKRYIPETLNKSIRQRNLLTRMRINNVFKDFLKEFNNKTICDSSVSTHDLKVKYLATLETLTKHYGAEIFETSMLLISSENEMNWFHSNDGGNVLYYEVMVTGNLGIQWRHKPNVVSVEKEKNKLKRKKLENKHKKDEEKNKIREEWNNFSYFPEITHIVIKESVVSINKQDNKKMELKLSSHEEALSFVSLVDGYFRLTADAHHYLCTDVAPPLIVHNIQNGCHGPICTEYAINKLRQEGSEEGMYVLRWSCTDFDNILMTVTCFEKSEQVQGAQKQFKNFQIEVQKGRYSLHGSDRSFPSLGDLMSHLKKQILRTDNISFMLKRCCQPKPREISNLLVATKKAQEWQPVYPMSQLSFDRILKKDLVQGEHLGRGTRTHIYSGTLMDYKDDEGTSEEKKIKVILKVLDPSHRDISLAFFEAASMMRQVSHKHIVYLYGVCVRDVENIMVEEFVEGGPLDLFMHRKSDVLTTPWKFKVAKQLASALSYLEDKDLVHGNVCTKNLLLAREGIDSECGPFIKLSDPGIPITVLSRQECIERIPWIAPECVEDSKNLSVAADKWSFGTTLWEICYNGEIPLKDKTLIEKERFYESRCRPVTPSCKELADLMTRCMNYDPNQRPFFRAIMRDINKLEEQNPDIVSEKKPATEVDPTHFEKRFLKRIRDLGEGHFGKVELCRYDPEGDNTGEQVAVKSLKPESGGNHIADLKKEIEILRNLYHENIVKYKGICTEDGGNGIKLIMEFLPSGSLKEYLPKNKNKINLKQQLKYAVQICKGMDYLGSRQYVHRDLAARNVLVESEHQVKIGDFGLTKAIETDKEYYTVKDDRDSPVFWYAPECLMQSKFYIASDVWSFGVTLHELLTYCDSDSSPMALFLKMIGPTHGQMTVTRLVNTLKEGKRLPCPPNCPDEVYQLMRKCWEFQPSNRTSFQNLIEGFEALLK
Sequence of TYK2 (P29597 whole entry): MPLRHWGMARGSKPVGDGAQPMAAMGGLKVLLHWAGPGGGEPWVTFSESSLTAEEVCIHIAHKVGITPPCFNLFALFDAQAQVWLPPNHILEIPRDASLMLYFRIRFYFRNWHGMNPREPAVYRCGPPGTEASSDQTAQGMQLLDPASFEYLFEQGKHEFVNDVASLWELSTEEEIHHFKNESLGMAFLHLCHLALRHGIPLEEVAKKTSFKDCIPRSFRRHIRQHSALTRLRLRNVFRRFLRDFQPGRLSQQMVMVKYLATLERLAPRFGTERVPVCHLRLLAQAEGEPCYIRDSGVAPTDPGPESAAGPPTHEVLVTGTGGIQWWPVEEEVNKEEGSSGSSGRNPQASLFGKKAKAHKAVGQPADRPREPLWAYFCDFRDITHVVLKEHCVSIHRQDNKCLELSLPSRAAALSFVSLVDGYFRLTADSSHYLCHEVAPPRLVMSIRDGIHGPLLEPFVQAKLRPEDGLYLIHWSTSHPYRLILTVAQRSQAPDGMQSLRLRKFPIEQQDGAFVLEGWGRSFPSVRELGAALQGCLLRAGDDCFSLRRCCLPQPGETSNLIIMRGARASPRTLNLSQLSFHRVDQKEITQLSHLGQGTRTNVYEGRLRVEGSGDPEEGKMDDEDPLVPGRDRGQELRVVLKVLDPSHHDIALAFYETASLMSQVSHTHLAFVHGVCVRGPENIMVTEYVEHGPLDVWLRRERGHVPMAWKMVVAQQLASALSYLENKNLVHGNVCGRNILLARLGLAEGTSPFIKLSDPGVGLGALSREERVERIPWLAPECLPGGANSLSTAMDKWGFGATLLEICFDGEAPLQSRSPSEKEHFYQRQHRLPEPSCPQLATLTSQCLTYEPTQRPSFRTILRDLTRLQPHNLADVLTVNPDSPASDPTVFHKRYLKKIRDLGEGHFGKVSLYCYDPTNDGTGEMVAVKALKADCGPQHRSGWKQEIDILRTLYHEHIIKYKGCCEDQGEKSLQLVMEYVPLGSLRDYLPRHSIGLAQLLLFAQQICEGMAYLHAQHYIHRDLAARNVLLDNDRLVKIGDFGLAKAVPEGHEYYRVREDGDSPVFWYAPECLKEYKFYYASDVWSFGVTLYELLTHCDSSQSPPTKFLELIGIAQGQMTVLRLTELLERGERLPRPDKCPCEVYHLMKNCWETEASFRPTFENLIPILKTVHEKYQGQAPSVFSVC

For the compound `O=C1NCCCCOCc2cc(ccc2OCC(F)(F)F)Nc2nccc(n2)-c2ccc1cc2[N+](=O)[O-]` [Example 108, 1^2-nitro-4^4-(2,2,2-trifluoroethoxy)-6-oxa-3,11-diaza-2(4,2)-pyrimidina-1(1,4),4(1,3)-dibenzenacyclo-dodecaphan-12-one], the IC50 in experiment [1] was more than 10000 nM; in experiment [2], 101 to 1000 nM; in experiment [3], 1000 to 10000 nM; in experiment [4], 1000 to 10000 nM.
In the case of `Nc1cc2ccc1-c1ccnc(n1)Nc1ccc(OCC(F)(F)F)c(c1)COCCCCNC2=O` [Example 109, 1^2-amino-4^4-(2,2,2-trifluoroethoxy)-6-oxa-3,11-diaza-2(4,2)-pyrimidi-na-1(1,4),4(1,3)-dibenzenacyclo-dodecaphan-12-one], the IC50 in experiment [1] lay within 1000 to 10000 nM; in experiment [2], 11 to 100 nM; in experiment [3], 101 to 1000 nM; in experiment [4], 1000 to 10000 nM.
Take `Nc1cc2ccc1-c1ccnc(n1)Nc1ccc(Oc3cccnc3)c(c1)COCCCCNC2=O` [Example 110, 1^2-amino-4^4-(pyridin-3-oxy)-6-oxa-3,11-diaza-2(4,2)-pyrimidina-1(1,4),4(1,3)-dibenzenacyclodo-decaphan-12-one]: the IC50 in experiment [1] was 1000 to 10000 nM; in experiment [2] it was less than 10 nM; in experiment [3], 101 to 1000 nM; in experiment [4] it was 1000 to 10000 nM.
With `O=C1NCCCCOCc2cc(ccc2OCC2CC2)Nc2nccc(n2)-c2ccc1cc2[N+](=O)[O-]` [Example 111, 4^4-(cyclopropylmethoxy)-1^2-nitro-6-oxa-3,11-diaza-2(4,2)-pyrimidina-1(1,4),4(1,3)-dibenzenacyclo-dodecaphan-12-one], the IC50 in experiment [1] was more than 10000 nM; in experiment [2], 101 to 1000 nM; in experiment [3] it was 1000 to 10000 nM; in experiment [4], 1000 to 10000 nM.
As to `Nc1cc2ccc1-c1ccnc(n1)Nc1ccc(OCC3CC3)c(c1)COCCCCNC2=O` [Example 112, 1^2-amino-4^4-(cyclopropylmethoxy)-6-oxa-3,11-diaza-2(4,2)-pyrimidi-na-1(1,4),4(1,3)-dibenzenacyclo-dodecaphan-12-one], the IC50 in experiment [1] is more than 10000 nM; in experiment [2], less than 10 nM; in experiment [3], 101 to 1000 nM; in experiment [4], 1000 to 10000 nM.
In the case of `O=C1NCCCCOCc2cc(ccc2OC2CCCOC2)Nc2nccc(n2)-c2ccc1cc2[N+](=O)[O-]` (stereo not shown) [Example 113, 1^2-nitro-4^4-((tetrahydro-2H-pyran-3-yl)oxy)-6-oxa-3,11-diaza-2(4,2)-pyrimidina-1(1,4),4(1,3)-dibenzena-cyclododecaphan-12-one], the IC50 in experiment [1] is more than 10000 nM; in experiment [2], 101 to 1000 nM; in experiment [3], 1000 to 10000 nM; in experiment [4], 1000 to 10000 nM.
For the compound `Nc1cc2ccc1-c1ccnc(n1)Nc1ccc(OC3CCCOC3)c(c1)COCCCCNC2=O` (stereo not shown) [Example 114, 1^2-amino-4^4-((tetrahydro-2H-pyran-3-yl)oxy)-6-oxa-3,11-diaza-2(4,2)-pyrimidina-1(1,4),4(1,3)-di-benzenacyclododecaphan-12-one], the IC50 is 1000 to 10000 nM in experiment [1], less than 10 nM in experiment [2], 11 to 100 nM in experiment [3] and 101 to 1000 nM in experiment [4].
In the case of `CC(C)COc1ccc2cc1COCCCCNC(=O)c1ccc(c([N+](=O)[O-])c1)-c1ccnc(n1)N2` [Example 115, 4^4-isobutoxy-1^2-nitro-6-oxa-3,11-diaza-2(4,2)-pyrimidina-1(1,4),4(1,3)-dibenzenacyclododecaphan-12-one], the IC50 is more than 10000 nM in experiment [1], 101 to 1000 nM in experiment [2], 1000 to 10000 nM in experiment [3] and 1000 to 10000 nM in experiment [4].
Consider `CC(C)COc1ccc2cc1COCCCCNC(=O)c1ccc(c(N)c1)-c1ccnc(n1)N2` [Example 116, 1^2-amino-4^4-isobutoxy-6-oxa-3,11-diaza-2(4,2)-pyrimidina-1(1,4),4(1,3)-dibenzenacyclododecaphan-12-one], for which the IC50 in experiment [1] is 1000 to 10000 nM; in experiment [2] it was less than 10 nM; in experiment [3] it was 101 to 1000 nM; in experiment [4], 101 to 1000 nM.
`O=C1NCCCCOCc2cc(ccc2OCc2ccccc2)Nc2nccc(n2)-c2ccc1cc2[N+](=O)[O-]` [Example 117, 4^4-(benzyloxy)-1^2-nitro-6-oxa-3,1,1-diaza-2(4,2)-pyrimidina-1(1,4),4(1,3)-dibenzenacyclododecaphan-12-one]: the IC50 in experiment [1] was more than 10000 nM; in experiment [2], 101 to 1000 nM; in experiment [3], more than 10000 nM; in experiment [4] it was 1000 to 10000 nM.
For the compound `Nc1cc2ccc1-c1ccnc(n1)Nc1ccc(OCc3ccccc3)c(c1)COCCCCNC2=O` [Example 118, 1^2-amino-4^4-(benzyloxy)-6-oxa-3,11-diaza-2(4,2)-pyrimidina-1(1,4),4(1,3)-dibenzenacyclododecaphan-12-one], the IC50 in experiment [1] was more than 10000 nM; in experiment [2] it was 11 to 100 nM; in experiment [3] it was 1000 to 10000 nM; in experiment [4], 1000 to 10000 nM.
In the case of `Nc1cc2ccc1-c1ccnc(n1)Nc1ccc(Oc3ccccc3F)c(c1)COCCCCNC2=O` [Example 119, 1^1-amino-4^4-(2-fluorophenoxy)-6-oxa-3,11-diaza-2(4,2)-pyrimidina-1(1,4),4(1,3)-dibenzenacyclo-dodecaphan-12-one], the IC50 in experiment [1] is more than 10000 nM; in experiment [2], 11 to 100 nM; in experiment [3], 1000 to 10000 nM; in experiment [4] it was 1000 to 10000 nM.
With `O=C1NCCCCOCc2cc(ccc2OCC2CCC(F)(F)C2)Nc2nccc(n2)-c2ccc1cc2[N+](=O)[O-]` (stereo not shown) [Example 120, 4^4-((3,3-difluorocyclopentyl)meth-oxy)-1^2-nitro-6-oxa-3,11-diaza-2(4,2)-pyrimidina-1(1,4),4(1,3)-di-benzenacyclododecaphan-12-one], the IC50 is more than 10000 nM in experiment [1], 101 to 1000 nM in experiment [2], 1000 to 10000 nM in experiment [3] and 1000 to 10000 nM in experiment [4].
As to `Nc1cc2ccc1-c1ccnc(n1)Nc1ccc(OCC3CCC(F)(F)C3)c(c1)COCCCCNC2=O` (stereo not shown) [Example 121, 1^2-amino-4^4-((3,3-difluorocyclo-pentyl)methoxy)-6-oxa-3,11-diaza-2(4,2)-pyrimidina-1(1,4),4(1,3)-di-benzenacyclododecaphan-12-one], the IC50 in experiment [1] was 1000 to 10000 nM; in experiment [2], less than 10 nM; in experiment [3], 101 to 1000 nM; in experiment [4], 1000 to 10000 nM.
Turning to `O=C1NCCCCOCc2cc(ccc2OCC2Cc3ccccc3C2)Nc2nccc(n2)-c2ccc1cc2[N+](=O)[O-]` [Example 122, 4^4-((2,3-dihydro-1H-inden-2-yl)methoxy)-1^2-nitro-6-oxa-3,11-diaza-2(4,2)-pyrimidina-1(1,4),4(1,3)-dibenzenacyclododecaphan-12-one], the IC50 is more than 10000 nM in experiment [1], 101 to 1000 nM in experiment [2], more than 10000 nM in experiment [3] and more than 10000 nM in experiment [4].
Take `Nc1cc2ccc1-c1ccnc(n1)Nc1ccc(OCC3Cc4ccccc4C3)c(c1)COCCCCNC2=O` [Example 123, 1^2-amino-4^4-((2,3-dihydro-1H-inden-2-yl)methoxy)-6-oxa-3,11-diaza-2(4,2)-pyrimidina-1(1,4),4(1,3)-dibenzenacyclododecaphan-12-one]: the IC50 in experiment [1] is 1000 to 10000 nM; in experiment [2], 11 to 100 nM; in experiment [3], 1000 to 10000 nM; in experiment [4], 1000 to 10000 nM.

The values are drawn from patent US20230203059A1, “MACROCYCLIC JAK INHIBITOR AND USES THEREOF” (Biopolar Hongye (Guangdong) Pharmaceutical Co. Ltd., priority 2020, published 2023).
